Holding throughout (assay type): binding
Test [1] addresses kinases (KINOMEscan panel) (Homo sapiens, UniProt P10721). As to conditions: NEW KINOMEscan.
Test [2] has as its target T1, kinases (KINOMEscan panel) (Homo sapiens, UniProt P21709).
T1 sequence (P21709 26-976): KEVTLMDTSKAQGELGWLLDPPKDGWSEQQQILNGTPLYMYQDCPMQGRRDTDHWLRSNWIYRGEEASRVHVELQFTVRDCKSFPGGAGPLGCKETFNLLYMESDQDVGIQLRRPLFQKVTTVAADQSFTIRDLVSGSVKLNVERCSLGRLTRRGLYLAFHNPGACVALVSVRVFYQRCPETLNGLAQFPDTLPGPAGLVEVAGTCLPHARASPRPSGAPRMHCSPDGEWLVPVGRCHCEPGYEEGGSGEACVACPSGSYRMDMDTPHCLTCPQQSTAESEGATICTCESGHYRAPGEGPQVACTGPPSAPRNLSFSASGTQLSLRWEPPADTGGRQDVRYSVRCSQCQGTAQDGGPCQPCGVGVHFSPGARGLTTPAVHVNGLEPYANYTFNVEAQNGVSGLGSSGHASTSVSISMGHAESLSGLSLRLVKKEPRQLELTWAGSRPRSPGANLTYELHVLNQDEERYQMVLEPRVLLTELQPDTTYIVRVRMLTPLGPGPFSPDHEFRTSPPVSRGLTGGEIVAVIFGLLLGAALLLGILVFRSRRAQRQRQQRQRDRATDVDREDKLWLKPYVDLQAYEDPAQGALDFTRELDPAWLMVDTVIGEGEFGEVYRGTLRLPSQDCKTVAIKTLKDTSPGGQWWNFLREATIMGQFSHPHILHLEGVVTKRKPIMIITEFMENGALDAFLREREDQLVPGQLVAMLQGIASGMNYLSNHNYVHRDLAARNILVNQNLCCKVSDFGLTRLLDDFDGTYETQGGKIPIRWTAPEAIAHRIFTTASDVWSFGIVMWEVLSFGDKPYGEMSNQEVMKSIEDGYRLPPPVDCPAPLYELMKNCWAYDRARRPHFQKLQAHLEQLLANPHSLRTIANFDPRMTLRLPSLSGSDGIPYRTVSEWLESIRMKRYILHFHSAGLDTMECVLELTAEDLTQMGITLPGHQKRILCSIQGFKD
As to conditions: EPHA1; NEW KINOMEscan.

The target in test [3] is kinases (KINOMEscan panel) (Homo sapiens, UniProt P42336, M1043I). As to conditions: NEW KINOMEscan.
Test [4] deals with kinases (KINOMEscan panel) (Homo sapiens, UniProt P48736). The settings on record: kinase PIK3CG; NEW KINOMEscan.
In test [5] the target is kinases (KINOMEscan panel) (Homo sapiens, UniProt P50613). The settings on record: kinase CDK7; NEW KINOMEscan.
Test [6] concerns the target T2, kinases (KINOMEscan panel) (Homo sapiens, UniProt P54753).
T2 sequence (P54753 34-998): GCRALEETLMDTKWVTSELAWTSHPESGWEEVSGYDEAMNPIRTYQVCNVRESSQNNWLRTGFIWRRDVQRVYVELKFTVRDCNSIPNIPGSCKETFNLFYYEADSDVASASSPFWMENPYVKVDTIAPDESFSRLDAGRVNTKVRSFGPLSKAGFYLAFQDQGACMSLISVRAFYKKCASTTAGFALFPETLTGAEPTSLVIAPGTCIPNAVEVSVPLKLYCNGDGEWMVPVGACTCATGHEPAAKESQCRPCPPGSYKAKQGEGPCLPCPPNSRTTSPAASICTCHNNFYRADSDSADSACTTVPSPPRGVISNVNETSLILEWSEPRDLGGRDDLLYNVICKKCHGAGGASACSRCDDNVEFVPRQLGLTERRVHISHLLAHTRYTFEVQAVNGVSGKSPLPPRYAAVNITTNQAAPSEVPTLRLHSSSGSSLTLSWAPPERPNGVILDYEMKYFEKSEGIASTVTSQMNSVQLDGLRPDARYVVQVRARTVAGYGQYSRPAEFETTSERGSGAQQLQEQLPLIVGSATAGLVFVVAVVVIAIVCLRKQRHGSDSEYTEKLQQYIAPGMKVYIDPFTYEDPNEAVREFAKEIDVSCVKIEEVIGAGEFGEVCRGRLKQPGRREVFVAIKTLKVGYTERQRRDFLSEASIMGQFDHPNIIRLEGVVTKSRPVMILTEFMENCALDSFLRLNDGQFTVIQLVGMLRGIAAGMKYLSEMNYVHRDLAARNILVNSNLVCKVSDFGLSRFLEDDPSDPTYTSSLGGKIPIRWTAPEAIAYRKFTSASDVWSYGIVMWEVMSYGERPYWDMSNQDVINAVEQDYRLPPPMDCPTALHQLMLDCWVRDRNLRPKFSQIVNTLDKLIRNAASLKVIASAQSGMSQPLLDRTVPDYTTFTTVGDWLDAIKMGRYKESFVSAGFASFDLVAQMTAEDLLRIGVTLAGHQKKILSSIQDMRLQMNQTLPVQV
The settings on record: kinase EPHB3; NEW KINOMEscan.

Test [7] concerns the target kinases (KINOMEscan panel) (Homo sapiens, UniProt Q9UM73, L1196M). The settings on record: kinase ALK(L1196M); NEW KINOMEscan.
Test [8] concerns the target T3, kinases (KINOMEscan panel) (Homo sapiens, UniProt Q9UPZ9).
T3 sequence (Q9UPZ9 1-632): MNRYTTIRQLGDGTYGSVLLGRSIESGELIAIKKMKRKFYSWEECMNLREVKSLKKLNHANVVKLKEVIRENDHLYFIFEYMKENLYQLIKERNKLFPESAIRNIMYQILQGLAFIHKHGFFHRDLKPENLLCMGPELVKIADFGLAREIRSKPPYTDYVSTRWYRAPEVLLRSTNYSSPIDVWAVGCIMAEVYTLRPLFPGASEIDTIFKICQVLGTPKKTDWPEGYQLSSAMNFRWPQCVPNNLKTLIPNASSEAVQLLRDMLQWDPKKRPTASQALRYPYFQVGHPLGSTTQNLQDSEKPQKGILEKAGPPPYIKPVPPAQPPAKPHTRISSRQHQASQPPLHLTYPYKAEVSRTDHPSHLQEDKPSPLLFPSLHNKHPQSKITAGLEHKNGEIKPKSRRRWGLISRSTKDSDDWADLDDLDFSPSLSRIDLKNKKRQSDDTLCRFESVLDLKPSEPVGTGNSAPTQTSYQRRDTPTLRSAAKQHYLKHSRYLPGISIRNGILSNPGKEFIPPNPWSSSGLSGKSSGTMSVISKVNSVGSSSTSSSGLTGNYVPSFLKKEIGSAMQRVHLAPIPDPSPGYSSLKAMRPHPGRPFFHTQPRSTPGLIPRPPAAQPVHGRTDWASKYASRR
The settings on record: CILK1; NEW KINOMEscan.

Sequence of kinases (KINOMEscan panel) (Homo sapiens, UniProt P10721) (P10721 26-976): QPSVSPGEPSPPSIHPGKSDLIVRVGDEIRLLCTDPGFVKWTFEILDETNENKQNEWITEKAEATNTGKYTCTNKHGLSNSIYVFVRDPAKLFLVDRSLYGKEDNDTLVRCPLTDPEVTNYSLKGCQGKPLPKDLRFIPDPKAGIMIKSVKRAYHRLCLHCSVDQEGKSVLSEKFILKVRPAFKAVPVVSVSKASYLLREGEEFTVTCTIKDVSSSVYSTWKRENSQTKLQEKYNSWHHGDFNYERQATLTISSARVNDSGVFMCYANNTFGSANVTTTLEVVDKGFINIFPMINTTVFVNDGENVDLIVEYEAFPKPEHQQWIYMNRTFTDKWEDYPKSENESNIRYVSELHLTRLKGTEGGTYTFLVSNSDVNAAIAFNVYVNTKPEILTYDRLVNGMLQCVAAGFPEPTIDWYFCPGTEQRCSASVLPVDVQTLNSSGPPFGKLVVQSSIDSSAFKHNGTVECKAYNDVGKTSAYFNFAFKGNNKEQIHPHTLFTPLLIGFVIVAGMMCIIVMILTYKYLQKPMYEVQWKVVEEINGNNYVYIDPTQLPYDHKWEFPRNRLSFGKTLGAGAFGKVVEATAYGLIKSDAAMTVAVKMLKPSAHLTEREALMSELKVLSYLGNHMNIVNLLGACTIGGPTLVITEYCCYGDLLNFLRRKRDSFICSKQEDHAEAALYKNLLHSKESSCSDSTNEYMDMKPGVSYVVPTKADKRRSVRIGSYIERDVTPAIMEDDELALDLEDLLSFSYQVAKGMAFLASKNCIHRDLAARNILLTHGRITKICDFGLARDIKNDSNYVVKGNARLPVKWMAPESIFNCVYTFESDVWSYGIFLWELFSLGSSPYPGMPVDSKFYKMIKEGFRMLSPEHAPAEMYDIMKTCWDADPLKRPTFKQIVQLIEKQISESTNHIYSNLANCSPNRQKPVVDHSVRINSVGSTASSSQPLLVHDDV
Sequence of kinases (KINOMEscan panel) (Homo sapiens, UniProt P50613) (P50613 whole entry): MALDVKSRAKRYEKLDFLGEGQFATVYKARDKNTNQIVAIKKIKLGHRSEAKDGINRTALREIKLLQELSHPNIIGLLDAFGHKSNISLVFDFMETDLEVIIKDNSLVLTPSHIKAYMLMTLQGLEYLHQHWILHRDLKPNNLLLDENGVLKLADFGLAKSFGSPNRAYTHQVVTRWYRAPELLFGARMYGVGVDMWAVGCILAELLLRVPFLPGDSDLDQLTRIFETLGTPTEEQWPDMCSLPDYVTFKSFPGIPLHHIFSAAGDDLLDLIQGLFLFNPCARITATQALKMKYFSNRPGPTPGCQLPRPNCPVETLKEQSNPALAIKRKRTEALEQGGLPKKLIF
Sequence of kinases (KINOMEscan panel) (Homo sapiens, UniProt P42336, M1043I) (P42336 whole entry M1043I): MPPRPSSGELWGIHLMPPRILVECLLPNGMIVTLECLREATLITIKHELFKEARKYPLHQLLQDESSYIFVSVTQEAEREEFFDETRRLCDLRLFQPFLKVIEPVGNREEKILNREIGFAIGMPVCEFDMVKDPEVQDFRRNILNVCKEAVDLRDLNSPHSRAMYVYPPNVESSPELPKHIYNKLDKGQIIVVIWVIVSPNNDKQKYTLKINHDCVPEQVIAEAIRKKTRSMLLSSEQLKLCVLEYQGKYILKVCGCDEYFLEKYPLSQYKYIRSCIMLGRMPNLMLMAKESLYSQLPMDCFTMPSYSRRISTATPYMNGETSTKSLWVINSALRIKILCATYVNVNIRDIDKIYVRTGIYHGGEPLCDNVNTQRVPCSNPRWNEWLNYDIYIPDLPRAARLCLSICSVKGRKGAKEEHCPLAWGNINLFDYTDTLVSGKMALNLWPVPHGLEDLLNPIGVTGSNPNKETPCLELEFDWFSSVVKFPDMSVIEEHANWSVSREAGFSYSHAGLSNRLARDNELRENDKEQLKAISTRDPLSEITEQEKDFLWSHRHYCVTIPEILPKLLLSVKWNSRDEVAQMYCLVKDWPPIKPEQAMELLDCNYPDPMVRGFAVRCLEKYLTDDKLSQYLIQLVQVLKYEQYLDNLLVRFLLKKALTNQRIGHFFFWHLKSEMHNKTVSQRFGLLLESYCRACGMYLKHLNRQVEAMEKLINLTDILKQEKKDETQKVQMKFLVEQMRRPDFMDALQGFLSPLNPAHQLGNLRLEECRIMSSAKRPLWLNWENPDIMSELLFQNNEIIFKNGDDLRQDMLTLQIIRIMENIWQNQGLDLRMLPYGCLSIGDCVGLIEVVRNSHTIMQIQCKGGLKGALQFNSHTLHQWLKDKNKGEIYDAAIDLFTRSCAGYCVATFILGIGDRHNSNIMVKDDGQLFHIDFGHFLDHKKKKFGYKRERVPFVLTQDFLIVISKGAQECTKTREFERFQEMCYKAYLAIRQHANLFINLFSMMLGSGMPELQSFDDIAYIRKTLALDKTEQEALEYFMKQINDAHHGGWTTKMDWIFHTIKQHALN
Sequence of kinases (KINOMEscan panel) (Homo sapiens, UniProt Q9UM73, L1196M) (Q9UM73 19-1620 L1196M): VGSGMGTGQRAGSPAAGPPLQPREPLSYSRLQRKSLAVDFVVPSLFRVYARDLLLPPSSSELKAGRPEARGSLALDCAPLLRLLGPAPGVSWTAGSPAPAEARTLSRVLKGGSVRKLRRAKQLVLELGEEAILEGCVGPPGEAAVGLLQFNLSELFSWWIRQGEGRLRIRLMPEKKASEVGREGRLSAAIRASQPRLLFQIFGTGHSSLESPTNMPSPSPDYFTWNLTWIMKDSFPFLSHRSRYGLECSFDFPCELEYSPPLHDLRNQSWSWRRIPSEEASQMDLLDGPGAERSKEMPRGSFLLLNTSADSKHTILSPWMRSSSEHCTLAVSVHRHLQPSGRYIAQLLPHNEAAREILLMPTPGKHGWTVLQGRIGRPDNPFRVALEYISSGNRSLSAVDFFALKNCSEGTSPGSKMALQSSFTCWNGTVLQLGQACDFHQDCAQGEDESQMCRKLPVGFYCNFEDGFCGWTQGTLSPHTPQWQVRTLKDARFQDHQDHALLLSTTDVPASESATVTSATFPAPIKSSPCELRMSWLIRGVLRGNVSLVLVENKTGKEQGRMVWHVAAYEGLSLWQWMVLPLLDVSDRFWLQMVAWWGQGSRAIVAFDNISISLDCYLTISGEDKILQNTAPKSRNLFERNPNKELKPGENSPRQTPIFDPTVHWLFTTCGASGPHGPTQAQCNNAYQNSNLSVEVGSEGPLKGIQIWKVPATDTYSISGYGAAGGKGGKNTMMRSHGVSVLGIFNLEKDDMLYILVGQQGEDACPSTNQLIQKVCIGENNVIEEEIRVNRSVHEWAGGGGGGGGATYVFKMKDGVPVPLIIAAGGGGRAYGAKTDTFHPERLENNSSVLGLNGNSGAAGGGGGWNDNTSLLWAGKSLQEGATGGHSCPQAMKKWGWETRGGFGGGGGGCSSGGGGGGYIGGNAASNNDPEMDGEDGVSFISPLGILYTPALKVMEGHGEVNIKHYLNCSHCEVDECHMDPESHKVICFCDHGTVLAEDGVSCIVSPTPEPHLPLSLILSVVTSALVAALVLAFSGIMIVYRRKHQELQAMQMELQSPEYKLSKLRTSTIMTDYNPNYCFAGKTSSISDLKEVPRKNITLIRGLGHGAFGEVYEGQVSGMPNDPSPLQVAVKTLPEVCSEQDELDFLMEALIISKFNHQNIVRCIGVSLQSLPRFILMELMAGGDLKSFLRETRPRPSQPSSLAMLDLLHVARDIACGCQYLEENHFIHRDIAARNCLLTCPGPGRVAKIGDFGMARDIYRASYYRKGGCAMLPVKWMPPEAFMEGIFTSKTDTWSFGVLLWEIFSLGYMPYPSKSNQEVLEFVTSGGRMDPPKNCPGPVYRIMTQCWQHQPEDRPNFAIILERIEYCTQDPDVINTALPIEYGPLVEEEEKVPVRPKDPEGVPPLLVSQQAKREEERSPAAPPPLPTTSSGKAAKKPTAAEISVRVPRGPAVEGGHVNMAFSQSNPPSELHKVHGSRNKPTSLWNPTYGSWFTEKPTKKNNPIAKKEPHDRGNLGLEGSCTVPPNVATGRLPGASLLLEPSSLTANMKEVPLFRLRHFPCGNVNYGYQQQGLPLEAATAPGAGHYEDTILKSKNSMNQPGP
Sequence of kinases (KINOMEscan panel) (Homo sapiens, UniProt P48736) (P48736 whole entry): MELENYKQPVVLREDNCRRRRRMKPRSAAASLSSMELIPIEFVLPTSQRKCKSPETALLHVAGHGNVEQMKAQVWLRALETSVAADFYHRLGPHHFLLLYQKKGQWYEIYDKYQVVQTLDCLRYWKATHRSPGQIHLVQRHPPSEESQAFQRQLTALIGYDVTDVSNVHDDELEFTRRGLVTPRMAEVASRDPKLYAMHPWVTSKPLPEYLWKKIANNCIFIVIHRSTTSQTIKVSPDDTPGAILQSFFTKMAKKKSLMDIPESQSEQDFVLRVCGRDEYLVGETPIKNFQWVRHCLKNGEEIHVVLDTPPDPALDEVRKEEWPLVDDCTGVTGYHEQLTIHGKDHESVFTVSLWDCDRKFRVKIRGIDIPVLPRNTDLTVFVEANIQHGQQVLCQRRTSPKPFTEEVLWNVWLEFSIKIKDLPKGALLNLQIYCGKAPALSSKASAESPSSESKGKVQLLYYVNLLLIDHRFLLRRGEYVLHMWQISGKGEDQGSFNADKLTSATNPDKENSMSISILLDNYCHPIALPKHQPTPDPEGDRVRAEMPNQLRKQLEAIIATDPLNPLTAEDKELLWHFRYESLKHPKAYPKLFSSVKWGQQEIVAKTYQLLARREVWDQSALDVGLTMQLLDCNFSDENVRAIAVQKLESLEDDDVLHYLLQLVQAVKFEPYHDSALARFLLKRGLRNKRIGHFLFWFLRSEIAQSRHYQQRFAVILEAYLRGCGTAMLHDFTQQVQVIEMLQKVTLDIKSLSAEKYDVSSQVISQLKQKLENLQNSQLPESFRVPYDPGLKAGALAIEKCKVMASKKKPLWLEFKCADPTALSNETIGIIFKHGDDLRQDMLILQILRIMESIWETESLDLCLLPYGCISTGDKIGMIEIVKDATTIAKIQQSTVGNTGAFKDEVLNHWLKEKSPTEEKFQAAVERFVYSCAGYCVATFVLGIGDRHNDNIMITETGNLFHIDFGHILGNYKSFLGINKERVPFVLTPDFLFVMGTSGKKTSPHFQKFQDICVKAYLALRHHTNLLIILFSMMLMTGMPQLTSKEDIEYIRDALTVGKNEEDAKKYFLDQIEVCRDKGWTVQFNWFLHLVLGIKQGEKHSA

Regarding `Cc1cccc(-c2nc(N(C)c3ccc4ncsc4c3)c3ccccc3n2)n1` [NK-161], in test [1], the “KINOMEscan KIT-autoinhibited” value came to 0 and the “KINOMEscan KIT” value is reported as 5. Besides, the “KINOMEscan EPHA1” value in test [2] stood at 0. Besides, in test [3], the “KINOMEscan PIK3CA(M1043I)” value is given as 10. Also, the “KINOMEscan PIK3CG” value in test [4] amounted to 8. In addition, the “KINOMEscan CDK7” value in test [5] stood at 7. Also, the “KINOMEscan EPHB3” value in test [6] was determined as 6. In addition, in test [7], the “KINOMEscan ALK(L1196M)” value is reported as 0. For the same molecule, the “KINOMEscan CILK1” value in test [8] is given as 0.

In the case of `Cc1cccc(-c2nc(Nc3ccc4nn(C)cc4c3)c3ccccc3n2)n1` [NK167], in test [1], the “KINOMEscan KIT-autoinhibited” value is 1 and the “KINOMEscan KIT” value turned out to be 8. For the same molecule, the “KINOMEscan EPHA1” value in test [2] is 1. In addition, in test [3], the “KINOMEscan PIK3CA(M1043I)” value amounted to 17. Further, in test [4], the “KINOMEscan PIK3CG” value was 0. Further, the “KINOMEscan CDK7” value in test [5] is reported as 0. In addition, the “KINOMEscan EPHB3” value in test [6] turned out to be 6. In addition, in test [7], the “KINOMEscan ALK(L1196M)” value was determined as 0. Besides, the “KINOMEscan CILK1” value in test [8] was 0.

(Values after PMC9851200, “Multiparameter phenotypic screening for endogenous TFEB and TFE3 translocation identifies novel chemical series modulating lysosome function” (Autophagy, 2022).)
